# Results published in patent US12310967B2, “Compositions and methods of treatment for neurological disorders comprising motor neuron diseases” (Gliapharm SA, priority 2017, dated 2025).
# Like-named read-outs stand apart in the source and are kept apart here.
# System: primary astrocytes
# Assay: Extracellular lactate quantification
# Assay type: cell-based, mouse
# Settings: Appendix II; for Score Lact.: CDC54K library; for EC50: lactate secretion, read-out: EC50
# Experimental: Secretion of L-lactate was determined in the extracellular medium of 96-well plated astrocytes after 90 min stimulation (at 37° C., in 5% CO2/95% air conditions) with the drug of interest. The stimulation medium was composed of D5030 medium (completed with D-glucose 5 mM and 44 mM sodium bicarbonate) for 90 min in concentrations ranging from 0 to 100 μM.
# Briefly, 200 μl of a Glycine (Sigma)-Semicarbazide (Acros) 0.2M pH 10 buffer containing 3 mM NAD (Roche) and LDH 14 U/ml (Roche) was added to each well of a 96-well plate containing 30 μl aliquots complemented with 20 μl fresh complete D5030 medium. Samples were incubated at 37° C. for 1 h. After samples cooled down at room temperature, the fluorescence intensity (340 nm excitation/450 nm emission) that represents the amount of NADH produced was measured, and lactate concentration values were determined from a standard curve of L-lactate.
# Statistical analysis consisted in ANOVA followed by Fisher LSD post-hoc test for pair-wise comparisons.
# Levels of lactate secreted by astrocytes were measured in the extracellular medium at 90 min after stimulation with hits (molecules) from the CDC54K library.
SMILES,Score Lact.,EC50 [µM],"EC50 (Mus musculus, Astrocyte) [µM]"
COc1ccc(S(=O)(=O)Nc2ccc(N3CCCCS3(=O)=O)cc2)cc1F [F2794-0128],0.62,9.85,
Cc1ccc(S(=O)(=O)Nc2ccc(F)c(F)c2F)cc1[N+](=O)[O-] [T5729557],0.88,,
Cc1noc2ncnc(NC(C)CCc3ccccc3)c12 (stereo not shown) [E944-0182],0.55,,
CCN(CC)C(=O)c1nc(CNC(=O)c2ccc3ccccc3n2)oc1C [T993-1787],0.36,,
Cc1nnsc1C(=O)N1CCN(C(C)C)CC1 [Z606-5341],0.36,,
CCCCn1c(CN(C)Cc2ccccc2)nc2c1c(=O)n(C)c(=O)n2C [T5788545],0.45,,
COc1ccc(NS(=O)(=O)c2ccc(NC(=O)C3CCCO3)cc2)cc1 (stereo not shown) [T5329723],0.53,,
CC1(C)Cc2cccc(OCC(O)CN3CCc4ccccc4C3)c2O1 (stereo not shown) [T0515-1783],0.59,,
COc1ccc(C(C)NC(=O)c2cc(=O)c3ccccc3o2)cc1I (stereo not shown) [T5710343],0.67,,6.31
N#Cc1cc(C(=O)c2cc(I)ccc2O)cn(-c2ccc(I)c(Cl)c2)c1=O [T0516-6894],0.38,,8.21
C1=C(c2ccccc2)c2c(ncnc2NCCN2CCOCC2)C1.O=C(O)C(=O)O.O=C(O)C(=O)O [T0513-0213],0.30,,3.99
CCNc1cc(C)nc(Nc2ccc(NC(=O)Cc3ccccc3)cc2)n1 [G869-0064],0.54,,
Cc1ccc(-c2c[nH]c(NC(=O)c3ccncc3)n2)cc1[N+](=O)[O-] [T5694329],0.47,,1.59
Cc1c(O)ccc2c(CN(C)CC3COc4ccccc4O3)cc(=O)oc12 (stereo not shown) [T5494352],0.44,,
Cc1nc2ncnn2c(NCc2ccco2)c1C [Z606-8298],0.38,,
CCOc1ccc(C2=CCc3c2ncn(Cc2ccncc2)c3=O)cc1OCC [L115-0403],0.81,,3.28
Cc1[nH]c2nc(CNc3nc4ccccc4c(=O)n3C)[nH]c(=O)c2c1C [T0517-2783],0.46,,3.84
CC(=O)N1CC(C)(C)c2cc(S(=O)(=O)Nc3ccc(I)cc3C)ccc21 [L302-0181],0.52,,5.05
CCN1C(=O)c2cccc3c(S(=O)(=O)Nc4ccc(OC)cc4OC)ccc1c23 [T5477696],0.44,,
COc1cc(C)c(NC(=O)Cc2ccc(C)c(C)c2)cc1OC [T5783794],0.44,,6.11

SMILES,Score Lact.,EC50 [µM],"EC50 (Mus musculus, Astrocyte) [µM]"
COc1ccc(-c2csc(N3C(=O)CC4CS(=O)(=O)CC43)n2)cc1 (stereo not shown) [T5832764],0.60,4.02,
O=C(O)C(=O)O.c1ccc(Cc2ccc(OCCn3ccnc3)cc2)cc1 [T5821723],0.73,,
CN(C)c1ccc2ncnc(N3CCN(C(=O)c4ccc(Cl)cc4)CC3)c2c1 [M381-0730],0.57,,
COc1ccc(NS(=O)(=O)c2cccc(NC(=O)c3ccc[nH]3)c2)cc1 [T0517-4117],0.91,,5.43
COc1ccccc1NC(=O)CO/N=C(/N)c1cccc(C(C)(F)F)c1 [T5770640],0.55,,4.86
Cc1nc2ccccc2n1CCOc1ccc(Br)cc1 [T0505-4087],0.64,,
CCNc1cc(C)nc(Nc2ccc(NC(=O)C3=CC=CC3)cc2)n1 [G869-0071],0.63,,4.9
CN(C)S(=O)(=O)c1cccc(C(=O)Nc2ccc(Oc3ccccc3)cc2)c1 [T5393500],0.59,,
Br.CCOc1ccc(C2(O)C(C)C3=C(CCN3)N2c2ccc(OC)cc2)cc1 (stereo not shown) [T0500-6629],0.61,,2.61
C1CCCC(NC2=NCCCNC23CCCCC3)CC1 [Z076-0028],0.56,,
CN1c2ccccc2C(=O)NC1c1ccc(Cl)c(Cl)c1 (stereo not shown) [T5389517],0.33,,
CC(=O)N1CCCc2cc(S(=O)(=O)Nc3ccc(OC(F)(F)F)cc3)ccc21 [G855-0183],0.54,,
Cc1cc(C)cc(NC(=O)CN2CCCC2c2ccc3c(c2)OCCCO3)c1 (stereo not shown) [T5993799],1.14,,8.81
CCCCN1C(=O)C(C)(C(=O)Nc2ccc(OCC)cc2)Oc2cccnc21 (stereo not shown) [P621-1364],0.43,,
CC(=O)c1c(C)[nH]c(C(=O)N(C)Cc2ccc(C)cc2C)c1C [T5705522],0.85,,
CC(=O)N1CC(C)(C)c2cc(S(=O)(=O)NCc3ccc(C)cc3)ccc21 [L302-0069],0.55,,
COc1cccc(C(CNc2nc(C(C)(C)C)nc3ccccc23)N(C)C)c1 (stereo not shown) [T5800607],063,,5.87
O=S(=O)(Nc1ccc(S(=O)(=O)C(F)F)cc1)c1ccc(Cl)cc1 [T5311200],0.56,,
CCOc1ccc(CN(C)CC(=O)Nc2cccc(C)c2)cc1OC [T5318833],0.42,,
CC(C)(C)c1cccc(CNc2ncnc3[nH]ncc23)c1 [F5285-0069],0.36,,6.29

SMILES,Score Lact.,EC50 [µM],"EC50 (Mus musculus, Astrocyte) [µM]"
CCc1c(C)nc2ncnn2c1NC1CCCCCC1 [Z606-8351],0.42,,
COc1ccc(CCNc2ncnc3c2cnn3C)cc1 [K405-2595],0.70,,
CC(=O)N1CCc2cc(S(=O)(=O)NCC(C)c3ccccc3)ccc21 (stereo not shown) [T5707230],0.67,4.88,
CCc1cccc(NS(=O)(=O)c2ccc3c(c2)CCCN3C(C)=O)c1 [G855-0143],0.56,,
CC(=O)c1c(C)[nH]c(C(=O)C(C)N(C)Cc2ccc3c(c2)OCO3)c1C (stereo not shown) [T5798761],0.73,,
O=C(Nc1ccc(S(=O)(=O)NCC2CCCO2)cc1)c1ccccc1 (stereo not shown) [Y031-0361],0.43,,
Cc1ccc(OCCn2c(C)nc3ccccc32)cc1 [T5444083],0.51,,
Cc1cccc(NC(=O)c2ccc(S(=O)(=O)Nc3ccccc3)cc2)n1 [T6125251],0.51,,
Cn1nc(C(=O)Nc2ccc(Oc3ccccc3Cl)cc2)ccc1=O [T5813085],1.01,,
C1=Cc2ncnc(NCc3ccccc3CN3CCOCC3)c2C1 [T5790476],0.79,,3.98
CC(=O)Nc1cccc(NC(=O)CCc2nc(C)c(C)n2C2CCCC2)c1 [T5788339],0.75,,3.9
CC1=C(C)c2c(N)nc(CCc3nc4ccccc4[nH]3)nc2C1 [T5719257],0.74,,2.85
O=S(=O)(Nc1ccc(Cl)cc1)c1ccc(F)c(Cl)c1 [T6947848],0.98,,
CCCC(=O)NC1=NC(c2ccc3c(c2)CCO3)=CC1 [T5691896],0.38,,5.21
CCn1c(=O)c(C)nc2cc(C(=O)N(Cc3ccc(C)cc3)C3CC3)ccc21 [T5586091],0.45,,5.36
CCc1ccc(NC(=O)Cc2cn(C)c3ncccc23)cc1 [M508-0370],0.60,,
Cc1cccc(NC(=O)NC2CCN(c3nc4ccccc4n(C)c3=O)CC2)c1 [L932-0267],0.53,,4.64
CCc1ccc(S(=O)(=O)Nc2c(C)nn(C)c2C)cc1 [T5753165],0.54,,
COc1ccc(CC(=O)Nc2ccc(C)c(C)c2)cc1OC [Y030-2832],0.34,,
Cc1cccc(NS(=O)(=O)c2ccc(F)c(Cl)c2)c1 [F3394-1364],0.33,5.87,
